Test results published in PMC7332481, “Ecotoxicity screening evaluation of selected pharmaceuticals and their transformation products towards various organisms” (Environmental Science and Pollution Research International, 2020).
≈ marks a conversion by molar mass, not a printed value. Like-named read-outs stand apart in the source and are kept apart here.

Assays:
Vibrio fischeri = experiment: microbe, parasite or virus in culture; type: cell-based; details: Aliivibrio fischeri; for EC50: 0.5 h, read-out: EC50 V. fischeri (with confidence interval 2.5–97.5%)
Experimental: (§1) Stock solutions and dilutions were prepared in 2% NaCl in 0.02 M phosphate buffer, pH 7. The freeze-dried bacteria were rehydrated prior to testing in a reactivation solution. Culture suspensions and diluted samples were pre-incubated at 15 °C for 15 min. After the initial luminescence was measured, 0.5 mL of the culture suspension was mixed with the same volume of a diluted sample. The final bioluminescence was measured after 30 min. Incubation was kept at 15 °C (LUMIStox 300 meter, Dr. Lange GmbH, Berlin, Germany). The relative toxicity of the samples was expressed as a percentage of luminescence inhibition compared to the controls.
as §1, with “m,” for “meter,”

Daphnia magna = experiment: D. magna acute immobilization test; type: in vivo; details: Daphnia magna; for EC50: immobilization, 48 h, read-out: EC50 D. magna (with confidence interval 2.5–97.5%); for mortality at 70 µg/mL: read-out: Immobilization
Experimental: (§2) All tests were carried out in accordance with the OECD or ISO guidelines. In general the experimental part was divided into three main steps: (i) determination of the toxicity of the native forms of pharmaceuticals (their racemic mixtures), (ii) toxicity evaluation of the selected TPs of these pharmaceuticals, and (iii) preliminary toxicity assessment of the enantiomers of selected pharmaceuticals. For each assay, range-finding tests were conducted, in order to determine the range of concentrations for the definitive tests. The main tests were repeated three times in at least two parallel replicates, with a minimum of five concentrations for native forms of the selected pharmaceuticals (including their enantiomers). The exact number of replicates and concentrations tested was included in the description of each test. […] However, TPs were tested in a different manner; first, the tests were carried out at the limit concentration of 100 mg L^−1. […] Such approach was applied in order to observe the relative toxicity of the selected TP and its native form.
(§3) Dose-response curves were fitted using a linear logistic or logistic model (the model giving the best fit was chosen) (https://cran.r-project.org/web/packages/drfit/drfit.pdf). The mathematic formulas applied for this purpose are presented and described in the Supplementary Material. The EC50 values were given since log EC50 is a model parameter in the logistic as well as in linear logistic model.
Five pre-fed test organisms were incubated with the studied compounds diluted in 10 mL of test media in glass test vessels at 20 °C (± 1 °C) in darkness for 48 h. Each test consisted of a control and five different concentrations of the studied compound in four parallel replicates. In order to achieve a full dose-response relationship, the concentration series covered the range of 0–100% immobilization. The number of immobilized or dead organisms was checked after 24 and 48 h. The negative effect of exposure to the tested compounds was expressed by the number of immobilized organisms compared to the controls.

Lemna minor = experiment: L. minor growth inhibition test; details: Lemna minor; for EC50: 168 h, read-out: EC50 L. minor (with confidence interval 2.5–97.5%), growth rate inhibition by frond area, 7 days
Experimental: as §2, §3
One week before the assay, the inoculum cultures were prepared; eight healthy plants were placed into a new portion of the medium. Two days before the test, the plants were transferred to a fresh medium, in order to supplement nutrients and to eliminate plant metabolites. The experiments were performed in six-well plates under the conditions described above. The pH value of the Steinberg medium and all solutions was 5.5 (± 0.5). Every test included six different concentrations of compound and six controls in three replicates. The test started with one plant consisting of three fronds and the measured endpoint was the inhibition of growth rate determined by comparing the frond area (mm^2) for the treated plants and untreated controls.

Arthrobacter globiformis = experiment: A. globiformis dehydrogenase inhibition test (version without soil); details: for EC50: read-out: EC50 A. globiformis
Experimental: as §2
The test strain was obtained from the German Collection of Microorganisms (DSMZ). A version of the test without soil was performed. Bacteria was grown in a sterile medium containing 10 g L^−1 peptone from casein, 5 g L^−1 yeast extract, 5 g L^−1 glucose, and 5 g L^−1 NaCl. For the test, the medium was diluted in a ratio of 1:3 in water. The inoculum was the bacteria in a log-growth phase. Cell density was adjusted to 1 × 10^8 cells mL^−1, which corresponds to an optical density (OD600nm) of 0.4. The test was performed in 24-well microplates. Each well contained 1 mL of solution of the tested compound in water and 1 mL of bacterial inoculum. Next, the plates were incubated for 2 h at 30 °C on a horizontal shaker with a speed of 100 rpm. To each well, a portion of 0.6 mL of the redox active dye resazurine (45 mg L^−1) dissolved in buffer was added. The microplates were further incubated for 1 h (30 °C, 100 rpm). To stop the reduction process, the plates were centrifuged at 3600g for 10 min. Aliquots (300 μl) of supernatant from each well were immediately transferred to the wells of a 96-well microplate in triplicates. Finally, the dehydrogenase activity was determined by measuring the formation of resorufin from resazurine using a fluorimeter ([…]). Dehydrogenase inhibition was calculated using Eq. 1.
where FBTS is the measured fluorescence of the blank (medium) with the tested substance, FTS is the measured fluorescence of the sample, FBNC is the measured fluorescence of the blank, and FNC is the measured fluorescence of the negative control (with bacteria).

L. minor = details: cited from earlier work
Raphidocelis subcapitata = experiment: R. subcapitata reproduction (growth) inhibition test; type: cell-based; details: Raphidocelis subcapitata, 72 h, growth inhibition by cell counts, 72 h; read-out: EC50 R. subcapitata (with confidence interval 2.5–97.5%)
Experimental: as §2, §3
Test organisms were provided from Algal Culture Collection (Universität Göttingen, Germany). […] The light-dark cycle was different from the OECD guidelines, and it was introduced to imitate natural growth conditions. In order to ensure that the algae are in the exponential growth phase when used to inoculate the test solutions, the stock culture was diluted three times a week. The test was carried out in 25 mL suspension cell culture flasks (Nunc) (working volume 10 mL). All operations were performed under sterile conditions. The initial cell concentration was 5 × 10^4 cells mL^−1. Eight different concentrations of every compound in three replicates and a minimum of six controls were used in each test. […] The test flasks were incubated on a shaker with a speed of approx. 75 rpm at the temperature and light conditions described above. Growth inhibition was calculated using the cell counts of the treated samples in relation to the untreated controls after 72 h of exposure. The cells were counted with the use of CASY TT Cell counter & analyzer.

duckweed = details: ref Cleuvers 2003; cited from earlier work
algae = details: cited from earlier work
V. fischeri = details: cited from earlier work
[1] = ref US Food and Drug Administration 1996

Question: What does the source list for `O=C(O)Cc1ccccc1Nc1c(Cl)cccc1Cl` [DIC, Diclofenac]?
Answer: EC50 (Vibrio fischeri): 11.6 µg/mL (≈ 39.2 µM); inhibition at 10 µg/mL (Vibrio fischeri; read-out: Luminescence inhibition): 45%; mortality at 60 µg/mL (Daphnia magna; concentration 60 mg L^−1): 50%; EC50 (Daphnia magna): 59.1 µg/mL (≈ 200 µM); EC50 (Lemna minor): 16.5 µg/mL (≈ 55.8 µM); inhibition at 15 µg/mL (Lemna minor; read-out: Growth inhibition of L. minor): 33%; EC50 (Arthrobacter globiformis): > 100 µg/mL; inhibition at 100 µg/mL (Arthrobacter globiformis; read-out: inhibition of bacterial growth (A. globiformis)): 30%; classification on the basis of EC50 values (EC 93/67/EEC) (aquatic organisms): harmful; EC50 L. minor (L. minor; ref Quinn et al. (2011)): 47.6 µg/mL (≈ 161 µM)

Question: For `COc1ccc2cc([C@H](C)C(=O)O)ccc2c1` [NAP, Naproxen], which EC50 (Vibrio fischeri; luminescence inhibition, 30 min, 15 °C) is on record?
Answer: 25.2 µg/mL (≈ 109 µM)

Question: What about the inhibition at 25 µg/mL (Vibrio fischeri; concentration 25 mg L^−1, read-out: Luminescence inhibition) of the same compound?
Answer: 51%

Question: What about the mortality at 70 µg/mL (Daphnia magna; concentration 70 mg L^−1) of the same compound?
Answer: 32%

Question: What about the EC50 (Daphnia magna) of the same compound?
Answer: 74.4 µg/mL (≈ 323 µM)

Question: And the EC50 (Lemna minor)?
Answer: 20.7 µg/mL (≈ 89.9 µM)

Question: And the EC50 (Raphidocelis subcapitata)?
Answer: 27.1 µg/mL (≈ 118 µM)

Question: What about the EC50 (Arthrobacter globiformis) of the same compound?
Answer: > 100 µg/mL

Question: And the “classification on the basis of EC50 values (EC 93/67/EEC)” value (aquatic organisms; for the organisms named in the sentence)?
Answer: harmful

Question: What about the EC50 duckweed (duckweed) of the same compound?
Answer: 24 µg/mL (≈ 104 µM)

Question: What about the “EC50, 72h algae” value (algae; 72 h, ref Minguez et al. 2016) of the same compound?
Answer: 44.40 µg/mL (≈ 193 µM)

Question: And the “EC50, 96h algae” value (algae; 96 h, ref Isidori et al. 2005b)?
Answer: 31.82 µg/mL (≈ 138 µM)

Question: With `COc1cccc(C2(O)CCCCC2CN(C)C)c1` (stereo not shown) [TRA, Tramadol] as the compound, how does the mortality at 70 µg/mL (Daphnia magna) read?
Answer: 44%

Question: What about the “toxic effect towards V. fischeri” value (V. fischeri; at the concentration of 100 mg L^−1, ref Romanucci et al. (2019)) of the same compound?
Answer: did not observed any toxic effect

Question: And the “toxicity to V. fischeri” value (V. fischeri; [1])?
Answer: not toxic

Question: And the “toxicity to L. minor” value (L. minor; [1])?
Answer: not toxic
